Reference: ChEMBL document CHEMBL5053522, “Synthesis of 3-octadecanoxypropyl 6-deoxy-6-sulfo-α-d-glucopyranoside (ODSG) as a lipase-resistant SQAP derivative” (2021)

Test system: A549
Test: Cytotoxicity against human A549 cells assessed as survival rate upto 170 uM by CCK8 assay relative to control
Format: functional
Conditions: up to 170 µM

| Compound | Activity |
| --- | --- |
| CCCCCCCCCCCCCCCCCCOCCCO[C@H]1O[C@H](CS(=O)(=O)[O-])[C@@H](O)[C@H](O)[C@H]1O.[Na+] | >70% |
| CCCCCCCCCCCCCCCCCC(=O)OCCCO[C@H]1O[C@H](CS(=O)(=O)[O-])[C@@H](O)[C@H](O)[C@H]1O.[Na+] | 70% |
